Assay results reported in BigSolDB 2.1.

Compound Oc1ccc(OCc2ccccc2)cc1 has a solubility (mole fraction) (in 1,4-dioxane, 288.15 K) of 0.0903, a solubility (mole fraction) (in 1,4-dioxane, 293.15 K) of 0.131 and a solubility (mole fraction) (in 1,4-dioxane, 298.15 K) of 0.19. For the same compound, the solubility (mole fraction) (in 1,4-dioxane, 303.15 K) was 0.258, the solubility (mole fraction) (in 1,4-dioxane, 308.15 K) was 0.342 and the solubility (mole fraction) (in 1,4-dioxane, 313.15 K) was 0.435. For the same compound, the solubility (mole fraction) (in acetonitrile, 283.15 K) was 0.036, the solubility (mole fraction) (in acetonitrile, 288.15 K) was 0.0447 and the solubility (mole fraction) (in acetonitrile, 293.15 K) was 0.0546. It also gave a solubility (mole fraction) (in acetonitrile, 298.15 K) of 0.0669, a solubility (mole fraction) (in acetonitrile, 303.15 K) of 0.0821 and a solubility (mole fraction) (in acetonitrile, 308.15 K) of 0.101. The solubility (mole fraction) (in acetonitrile, 313.15 K) was 0.125, the solubility (mole fraction) (in cyclohexane, 283.15 K) was 0.000542 and the solubility (mole fraction) (in cyclohexane, 288.15 K) was 0.000933. For the same compound, the solubility (mole fraction) (in cyclohexane, 293.15 K) was 0.00156, the solubility (mole fraction) (in cyclohexane, 298.15 K) was 0.00261 and the solubility (mole fraction) (in cyclohexane, 303.15 K) was 0.00396. It also gave a solubility (mole fraction) (in cyclohexane, 308.15 K) of 0.0058, a solubility (mole fraction) (in cyclohexane, 313.15 K) of 0.00802 and a solubility (mole fraction) (in ethanol, 283.15 K) of 0.0319. For the same compound, the solubility (mole fraction) (in ethanol, 288.15 K) was 0.0396, the solubility (mole fraction) (in ethanol, 293.15 K) was 0.0484 and the solubility (mole fraction) (in ethanol, 298.15 K) was 0.0595. The solubility (mole fraction) (in ethanol, 303.15 K) was 0.0735, the solubility (mole fraction) (in ethanol, 308.15 K) was 0.0905 and the solubility (mole fraction) (in ethanol, 313.15 K) was 0.111. For the same compound, the solubility (mole fraction) (in ethyl acetate, 283.15 K) was 0.0773, the solubility (mole fraction) (in ethyl acetate, 288.15 K) was 0.129 and the solubility (mole fraction) (in ethyl acetate, 293.15 K) was 0.201. The solubility (mole fraction) (in ethyl acetate, 298.15 K) was 0.293, the solubility (mole fraction) (in ethyl acetate, 303.15 K) was 0.399 and the solubility (mole fraction) (in ethyl acetate, 308.15 K) was 0.519. For the same compound, the solubility (mole fraction) (in ethyl acetate, 313.15 K) was 0.632, the solubility (mole fraction) (in isopropanol, 283.15 K) was 0.0317 and the solubility (mole fraction) (in isopropanol, 288.15 K) was 0.0383. It also gave a solubility (mole fraction) (in isopropanol, 293.15 K) of 0.0476, a solubility (mole fraction) (in isopropanol, 298.15 K) of 0.0585 and a solubility (mole fraction) (in isopropanol, 303.15 K) of 0.0736. For the same compound, the solubility (mole fraction) (in isopropanol, 308.15 K) was 0.0921, the solubility (mole fraction) (in isopropanol, 313.15 K) was 0.116 and the solubility (mole fraction) (in methanol, 283.15 K) was 0.0381. For the same compound, the solubility (mole fraction) (in methanol, 288.15 K) was 0.0476, the solubility (mole fraction) (in methanol, 293.15 K) was 0.0593 and the solubility (mole fraction) (in methanol, 298.15 K) was 0.0739. It also gave a solubility (mole fraction) (in methanol, 303.15 K) of 0.0908, a solubility (mole fraction) (in methanol, 308.15 K) of 0.111 and a solubility (mole fraction) (in methanol, 313.15 K) of 0.136. It also gave a solubility (mole fraction) (in n-butanol, 283.15 K) of 0.0227, a solubility (mole fraction) (in n-butanol, 288.15 K) of 0.0282 and a solubility (mole fraction) (in n-butanol, 293.15 K) of 0.0346. It also gave a solubility (mole fraction) (in n-butanol, 298.15 K) of 0.0434, a solubility (mole fraction) (in n-butanol, 303.15 K) of 0.0543 and a solubility (mole fraction) (in n-butanol, 308.15 K) of 0.0666. It also gave a solubility (mole fraction) (in n-butanol, 313.15 K) of 0.0835, a solubility (mole fraction) (in n-hexane, 283.15 K) of 0.000327 and a solubility (mole fraction) (in n-hexane, 288.15 K) of 0.000453. For the same compound, the solubility (mole fraction) (in n-hexane, 293.15 K) was 0.000749, the solubility (mole fraction) (in n-hexane, 298.15 K) was 0.00108 and the solubility (mole fraction) (in n-hexane, 303.15 K) was 0.00161. For the same compound, the solubility (mole fraction) (in n-hexane, 308.15 K) was 0.00226, the solubility (mole fraction) (in n-hexane, 313.15 K) was 0.00313 and the solubility (mole fraction) (in n-octanol, 283.15 K) was 0.00719. It also gave a solubility (mole fraction) (in n-octanol, 288.15 K) of 0.0101, a solubility (mole fraction) (in n-octanol, 293.15 K) of 0.0136 and a solubility (mole fraction) (in n-octanol, 298.15 K) of 0.0171. For the same compound, the solubility (mole fraction) (in n-octanol, 303.15 K) was 0.0224, the solubility (mole fraction) (in n-octanol, 308.15 K) was 0.0289 and the solubility (mole fraction) (in n-octanol, 313.15 K) was 0.0355. The solubility (mole fraction) (in n-propanol, 283.15 K) was 0.0287, the solubility (mole fraction) (in n-propanol, 288.15 K) was 0.0352 and the solubility (mole fraction) (in n-propanol, 293.15 K) was 0.0428. The solubility (mole fraction) (in n-propanol, 298.15 K) was 0.0521, the solubility (mole fraction) (in n-propanol, 303.15 K) was 0.0642 and the solubility (mole fraction) (in n-propanol, 308.15 K) was 0.0794. For the same compound, the solubility (mole fraction) (in n-propanol, 313.15 K) was 0.0994, the solubility (mole fraction) (in water, 283.15 K) was 5e-06 and the solubility (mole fraction) (in water, 288.15 K) was 7e-06. The solubility (mole fraction) (in water, 293.15 K) was 9e-06, the solubility (mole fraction) (in water, 298.15 K) was 1.3e-05 and the solubility (mole fraction) (in water, 303.15 K) was 1.7e-05. For the same compound, the solubility (mole fraction) (in water, 308.15 K) was 2.3e-05 and the solubility (mole fraction) (in water, 313.15 K) was 3e-05.
